From patent publication US12054475B2, “Substituted heterocycles as aldehyde dehydrogenase inhibitors” (KayoThera Inc., priority 2021, dated 2024)
“And” between values parts separate entries of the source, which are not always exact repeats. Identical values can stand only once. Like-named read-outs stand apart in the source and are kept apart here.

Experiments:
hALDH1a3 [1] = target: T1, hALDH1a3 (Homo sapiens (Human), UniProt P47895); test: Aldh1a3 enzyme inhibition assay (recombinant enzyme, resorufin fluorescence); format: biochemical
Protocol: (§1) Cells were resuspended in 10 mM […] pH 7.4, 10 mM KCl. […] Recombinant enzyme and inhibitor added immediately before assay. Reaction rate measured by resorufin fluorescence.

mALDH1a3 = mALDH1a3 (Mus musculus (Mouse), UniProt Q9JHW9); test: as above; format: biochemical
Protocol: as §1

hALDH1a2 [2] = target: T2, hALDH1a2 (Homo sapiens (Human), UniProt O94788); test: Aldh1a2 enzyme inhibition assay (recombinant enzyme, resorufin fluorescence); format: biochemical
mALDH1a2 = mALDH1a2 (Mus musculus (Mouse), UniProt Q62148); test: as above; format: biochemical
From the text: Recombinant enzyme and inhibitor added immediately before assay. Reaction rate measured by resorufin fluorescence.

[3] = Pharmacokinetic profiling in mice; details: male CD-1/C57BL/6 mice
hALDH1a2 [4] = target: T2, hALDH1a2; test: Cell based assay: STRA6 mRNA by q-rtPCR in MCF7 cells expressing ALDH1a2; details: 20 hours incubation, read-out: IC50 (ALDH1a2), STRA6 mRNA levels
Protocol: (§2) MCF7 cells were stably transduced with lentiviral vectors encoding human ALDH1a1, ALDH1a2 or ALDH1a3 or Vector control and selected by puromycin to establish stable cultures that were verified for overexpression by western blotting and Aldefluor activity. Cells were plated into 6 cm plates in regular DMEM media supplement with […]. At the beginning of the assay, cells were washed with PBS for 5 minutes followed by addition of compound solvated into DMEM media with 10% FBS or corresponding DMSO controls, maintaining DMSO at a constant concentration of 0.1% across all samples. Following 20 hours of incubation at 37 C, cells were lysed and RNA was extracted using a Qiagen RNAeasy kit. cDNA was synthesized using the Superscript IV kit and retinoid activation was measured using STRA6 mRNA levels as a proxy as measured by q-rtPCR.

hALDH1a3 [5] = target: T1, hALDH1a3; test: Cell based assay: STRA6 mRNA by q-rtPCR in MCF7 cells expressing ALDH1a3; details: 20 hours incubation, read-out: IC50 (Aldh1a3), STRA6 mRNA levels
Protocol: as §2

[6] = test system: T3-MCA fibrosarcoma cell line allografts; test: T3-MCA fibrosarcoma allograft study; format: in vivo, C57BL6 syngeneic mice; details: oral, 40 mg/kg once daily for twelve days
Protocol: In one allograft study, T3-MCA fibrosarcoma cell line allografts were implanted subcutaneously into C57BL6 syngeneic mice. […] Tumor volume were measured on day 8, 14, and 17 post inoculation for each group, and tumor mass were measured at the end of the study.
In another allograft study, T3-MCA fibrosarcoma cell line allografts were implanted subcutaneously into C57BL6 syngeneic mice.

T1 sequence (P47895 whole entry): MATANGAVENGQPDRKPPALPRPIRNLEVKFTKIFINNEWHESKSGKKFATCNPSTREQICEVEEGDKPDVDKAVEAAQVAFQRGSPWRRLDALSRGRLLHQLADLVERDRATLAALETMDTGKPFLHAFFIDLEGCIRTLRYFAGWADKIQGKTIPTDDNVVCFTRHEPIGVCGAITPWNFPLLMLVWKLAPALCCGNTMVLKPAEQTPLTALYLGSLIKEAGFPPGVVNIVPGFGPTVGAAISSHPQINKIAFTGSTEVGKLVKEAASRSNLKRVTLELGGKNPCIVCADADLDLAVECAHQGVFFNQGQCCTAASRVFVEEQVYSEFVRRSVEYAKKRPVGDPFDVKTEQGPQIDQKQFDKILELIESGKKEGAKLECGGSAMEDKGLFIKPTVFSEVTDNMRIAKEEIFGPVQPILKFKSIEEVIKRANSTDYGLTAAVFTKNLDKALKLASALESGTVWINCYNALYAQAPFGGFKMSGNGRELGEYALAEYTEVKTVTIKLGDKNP
T2 sequence (O94788 whole entry): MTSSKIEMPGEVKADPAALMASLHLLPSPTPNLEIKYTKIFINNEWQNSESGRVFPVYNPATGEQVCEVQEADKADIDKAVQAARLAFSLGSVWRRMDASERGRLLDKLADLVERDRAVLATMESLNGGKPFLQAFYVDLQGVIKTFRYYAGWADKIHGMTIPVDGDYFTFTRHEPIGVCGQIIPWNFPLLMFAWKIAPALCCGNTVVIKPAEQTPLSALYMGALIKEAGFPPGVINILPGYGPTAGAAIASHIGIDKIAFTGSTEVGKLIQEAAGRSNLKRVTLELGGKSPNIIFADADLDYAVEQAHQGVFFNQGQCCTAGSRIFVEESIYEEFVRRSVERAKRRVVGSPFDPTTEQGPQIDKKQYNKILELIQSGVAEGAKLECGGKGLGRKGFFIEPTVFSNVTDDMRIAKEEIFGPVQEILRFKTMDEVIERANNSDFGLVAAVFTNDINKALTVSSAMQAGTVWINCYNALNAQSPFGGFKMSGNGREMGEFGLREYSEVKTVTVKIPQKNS
mALDH1a2, sequence (Q62148 whole entry): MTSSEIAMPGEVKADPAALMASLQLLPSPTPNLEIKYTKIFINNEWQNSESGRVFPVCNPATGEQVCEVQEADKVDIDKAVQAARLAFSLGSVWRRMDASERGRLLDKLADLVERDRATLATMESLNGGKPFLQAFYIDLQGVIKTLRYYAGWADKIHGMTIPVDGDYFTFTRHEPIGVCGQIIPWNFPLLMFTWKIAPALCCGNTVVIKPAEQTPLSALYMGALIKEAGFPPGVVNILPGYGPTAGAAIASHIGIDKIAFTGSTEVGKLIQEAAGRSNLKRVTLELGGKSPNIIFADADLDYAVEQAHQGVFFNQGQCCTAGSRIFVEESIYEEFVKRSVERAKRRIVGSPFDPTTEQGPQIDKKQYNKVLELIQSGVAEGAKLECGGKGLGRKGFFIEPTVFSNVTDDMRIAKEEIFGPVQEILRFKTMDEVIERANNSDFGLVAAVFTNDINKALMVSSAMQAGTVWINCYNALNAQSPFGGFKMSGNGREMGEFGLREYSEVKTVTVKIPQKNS
mALDH1a3, sequence (Q9JHW9 whole entry): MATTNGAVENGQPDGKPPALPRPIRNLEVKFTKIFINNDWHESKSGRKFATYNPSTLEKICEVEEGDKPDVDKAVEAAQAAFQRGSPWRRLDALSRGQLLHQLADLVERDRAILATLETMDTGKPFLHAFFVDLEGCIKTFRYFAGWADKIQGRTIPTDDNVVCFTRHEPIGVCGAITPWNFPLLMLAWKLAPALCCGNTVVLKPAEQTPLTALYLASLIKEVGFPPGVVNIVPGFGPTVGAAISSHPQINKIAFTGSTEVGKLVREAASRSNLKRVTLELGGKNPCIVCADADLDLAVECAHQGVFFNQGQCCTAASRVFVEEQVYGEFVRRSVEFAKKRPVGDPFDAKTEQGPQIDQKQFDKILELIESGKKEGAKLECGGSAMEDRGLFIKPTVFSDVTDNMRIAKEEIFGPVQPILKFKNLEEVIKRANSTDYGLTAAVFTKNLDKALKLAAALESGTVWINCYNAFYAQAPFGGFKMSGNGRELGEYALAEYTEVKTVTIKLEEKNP

Molecule | IC50 (hALDH1a3 [1]; read-out: hAldh1a3 IC50) | IC50 (mALDH1a3; read-out: mAldh1a3 IC50) | IC50 (hALDH1a2 [2]) | IC50 (mALDH1a2) | also measured
2-ethyl-N-(8-methyl-2-oxo-3,4-dihydro-1H-quinolin-6-yl) piperazine-1-carboxamide [Compound 192] | > 5000 nM | > 5000 nM | > 10000 nM | > 10000 nM | 
CCC1COCCN1C(=O)Nc1cc(C)c2c(c1)CCC(=O)N2 (racemic) [Compound 193] | > 5000 nM | > 5000 nM |  |  | 
CCc1cnccc1C(=O)Nc1cc2c(cc1F)NC(=O)CC2 [Compound 1] |  |  | 3330 nM | 3330 nM | IC50 (hALDH1a3 [1]): 100 to 250 nM; IC50 (mALDH1a3): 100 to 250 nM
CCc1ccccc1C(=O)Nc1cc2c(cc1F)NC(=O)CC2 [Compound 4] |  |  |  |  | plasma half-life, IV bolus dosing ([3]; 1 mg/kg intravenous): 1.22 h; plasma half-life, PO oral gavage dosing ([3]; 10 mg/kg oral gavage): 1.70 h; oral bioavailability ([3]; 10 mg/kg oral gavage, 1 mg/kg intravenous): 62.5%
CCc1cnccc1C(=O)Nc1ccc2c(c1)CCC(=O)N2 [Compound 9] | < 100 nM | 250 to 1000 nM | 587 nM | 1110 nM | 
CCn1cncc1C(=O)Nc1ccc2c(c1)CCC(=O)N2 [Compound 49] | > 5000 nM | > 5000 nM | > 10000 nM | > 10000 nM | 
O=C1CCc2cc(NC(=O)c3ccncc3CC(F)(F)F)ccc2N1 [Compound 53] | < 100 nM | < 100 nM | 374 nM | 494 nM | 
O=C1CCc2cc(NC(=O)c3ccncc3CC3CC3)ccc2N1 [Compound 59] | < 100 nM | < 100 nM | 530 nM | 487 nM | 
O=C1CCc2cc(NC(=O)c3ccncc3CC(F)(F)F)c(F)cc2N1 [Compound 82] | < 100 nM | 100 to 250 nM | 620 nM | 941 nM | 
CCc1cnccc1C(=O)Nc1cc2c(cc1C)NC(=O)CC2 [Compound 83] | 100 to 250 nM | 1000 to 5000 nM | 9000 nM | 3500 nM | 
CCc1cnccc1C(=O)Nc1cc(C#N)c2c(c1)CCC(=O)N2 [Compound 139, N-(8-cyano-2-oxo-3,4-dihydro-1H-quinolin-6-yl)-3-ethyl-pyridine-4-carboxamide] | 100 to 250 nM | < 100 nM | 10000 nM | 1480 nM | 
CCc1cnccc1C(=O)Nc1cc2c(c(F)c1F)NC(=O)CC2 [Compound 143, N-(7,8-difluoro-2-oxo-3,4-dihydro-1H-quinolin-6-yl)-3-ethyl-pyridine-4-carboxamide] | < 100 nM | < 100 nM | 674 nM | 594 nM | 
CCc1cnccc1C(=O)Nc1cc(CC)c2c(c1)CCC(=O)N2 [Compound 144, 3-ethyl-N-(8-ethyl-2-oxo-3,4-dihydro-1H-quinolin-6-yl)pyridine-4-carboxamide] | < 100 nM | < 100 nM | 304 nM | 462 nM | 
CCc1cnccc1C(=O)Nc1cc2c(c(C)c1F)NC(=O)CC2 [Compound 146, 3-ethyl-N-(7-fluoro-8-methyl-2-oxo-3,4-dihydro-1H-quinolin-6-yl)pyridine-4-carboxamide] | < 100 nM | < 100 nM | 356 nM | 405 nM | 
Cc1cc(NC(=O)c2ccnc3c2CCO3)cc2c1NC(=O)CC2 [Compound 152, N-(8-methyl-2-oxo-3,4-dihydro-1H-quinolin-6-yl)-2,3-dihydrofuro[2,3-b]pyridine-4-carboxamide] | 1000 to 5000 nM | 250 to 1000 nM | 807 nM | 824 nM | 
Cc1cc(NC(=O)c2ccnc3c2CCN3)cc2c1NC(=O)CC2 [Compound 153, N-(8-methyl-2-oxo-3,4-dihydro-1H-quinolin-6-yl)-2,3-dihydro-1H-pyrrolo[2,3-b]pyridine-4-carboxamide] | 1000 to 5000 nM | 250 to 1000 nM | 492 nM | 362 nM | 
CCc1cnccc1C(=O)Nc1cnc2c(c1)CCC(=O)N2 [Compound 154, 3-ethyl-N-(7-oxo-6,8-dihydro-5H-1,8-naphthyridin-3-yl)pyridine-4-carboxamide] | 1000 to 5000 nM | 250 to 1000 nM | 4750 nM | 8170 nM | 
Cc1cc(NC(=O)c2ccncc2CC2CCC2)cc2c1NC(=O)CC2 [Compound 155] | 250 to 1000 nM | 1000 to 5000 nM | 835 nM | 1290 nM | 
CCc1cnccc1C(=O)Nc1cc2c(cn1)NC(=O)CC2 [Compound 159, 3-ethyl-N-(2-oxo-3,4-dihydro-1H-1,7-naphthyridin-6-yl)pyridine-4-carboxamide] | 250 to 1000 nM | 250 to 1000 nM | 2750 nM | 3180 nM | 
CCc1nnccc1C(=O)Nc1cc(C)c2c(c1)CCC(=O)N2 [Compound 166, 3-ethyl-N-(8-methyl-2-oxo-3,4-dihydro-1H-quinolin-6-yl) pyridazine-4-carboxamide] | < 100 nM | 250 to 1000 nM | 1600 nM | > 10000 nM | 
O=C1CCc2cc(NC(=O)c3ccncc3CC(F)(F)F)c(F)c(F)c2N1 [Compound 167, N-(7,8-difluoro-2-oxo-3,4-dihydro-1H-quinolin-6-yl)-3-(2,2,2-trifluoroethyl) pyridine-4-carboxamide] | < 100 nM | < 100 nM | 754 nM | 815 nM | 

Continued, in another order:

IC50 (hALDH1a3 [1]; read-out: hAldh1a3 IC50) | IC50 (mALDH1a3; read-out: mAldh1a3 IC50) | IC50 (hALDH1a2 [2]) | IC50 (mALDH1a2) | Molecule | also measured
 |  | 415 nM | 333 nM | CCc1cnc(Cl)cc1C(=O)Nc1ccc2c(c1)CCC(=O)N2 [Compound 77] | 
< 100 nM | < 100 nM | 289 nM | 180 nM | CCc1cnccc1C(=O)Nc1cc(F)c2c(c1)CCC(=O)N2 [Compound 141, 3-ethyl-N-(8-fluoro-2-oxo-3,4-dihydro-1H-quinolin-6-yl)pyridine-4-carboxamide] | 
< 100 nM | < 100 nM | 57 nM | 63 nM | CCc1cnccc1C(=O)Nc1cc(Cl)c2c(c1)CCC(=O)N2 [Compound 142, N-(8-chloro-2-oxo-3,4-dihydro-1H-quinolin-6-yl)-3-ethyl-pyridine-4-carboxamide] | 
< 100 nM | < 100 nM | 120 nM | 172 nM | CCc1cnccc1C(=O)Nc1cc2c(c3ccncc13)NC(=O)CC2 [Compound 145, 3-ethyl-N-(2-oxo-3,4-dihydro-1H-1,8-phenanthrolin-6-yl)pyridine-4-carboxamide] | 
100 to 250 nM | 250 to 1000 nM | 431 nM | 358 nM | CCc1cnccc1C(=O)Nc1cc2c(c(C)c1C)NC(=O)CC2 [Compound 147, N-(7,8-dimethyl-2-oxo-3,4-dihydro-1H-quinolin-6-yl)-3-ethyl-pyridine-4-carboxamide] | 
< 100 nM | < 100 nM |  | 118 nM | Cc1cc(NC(=O)c2ccncc2CC2CC2)cc2c1NC(=O)CC2 [Compound 149, 3-(cyclopropylmethyl)-N-(8-methyl-2-oxo-3,4-dihydro-1H-quinolin-6-yl)pyridine-4-carboxamide] | 
< 100 nM | < 100 nM | 121 nM | 131 nM | CCc1cnc(Cl)cc1C(=O)Nc1cc(C)c2c(c1)CCC(=O)N2 [Compound 150, 2-chloro-5-ethyl-N-(8-methyl-2-oxo-3,4-dihydro-1H-quinolin-6-yl)pyridine-4-carboxamide] | 
 |  | 75 nM | 86 nM | Cc1cc(NC(=O)c2ccncc2CC(F)(F)F)cc2c1NC(=O)CC2 [Compound 151, N-(8-methyl-2-oxo-3,4-dihydro-1H-quinolin-6-yl)-3-(2,2,2-trifluoroethyl)pyridine-4-carboxamide] | IC50 (hALDH1a2 [4]): 55.3 nM and < 50 nM; IC50 (hALDH1a3 [5]): 1.25 nM and < 50 nM; tolerability [6]: excellent tolerability; tumor growth [6]: successful inhibition of tumor growth
> 5000 nM | > 5000 nM | 163 nM | 177 nM | Cc1cc(Nc2ncc3ccccc3n2)cc2c1NC(=O)C(C)(C)C2 [Compound 160, 3,3,8-trimethyl-6-(quinazolin-2-ylamino)-1,4-dihydroquinolin-2-one] | 
> 5000 nM | 250 to 1000 nM | 89 nM | 114 nM | Cc1cc(Nc2cnc3ccccc3n2)cc2c1NC(=O)C(C)(C)C2 [Compound 161, 3,3,8-trimethyl-6-(quinoxalin-2-ylamino)-1,4-dihydroquinolin-2-one] | 
 |  | 70 nM | 92 nM | O=C1CCc2cc(NC(=O)c3ccncc3CC(F)(F)F)cc(Cl)c2N1 [Compound 168, N-(8-chloro-2-oxo-3,4-dihydro-1H-quinolin-6-yl)-3-(2,2,2-trifluoroethyl) pyridine-4-carboxamide] | 
